Test results: EP4563571A1, “PRMT5 INHIBITORS” (Beijing Earthwise Technology Co., Ltd., priority 2022, dated 2024)
Where two headings read alike, the source gives them in different places.

Columns and labels:
[1] = test system: HCT116^MTAP Deletion cells; test: Anti-proliferation assay on cells (Cell-Titer Glo, 10 days); assay type: cell-based; conditions: HCT116^MTAP Deletion cells, 10 days incubation, CTG readout, read-out: HCT116^MTAP Deletion GI50
Procedure, shortened: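 HCT116^MTAP Deletion cells seeded at 50 cells/well and exposed to 10-point 3-fold compound dilutions in duplicate (0.1% DMSO) for 10 days at 37 °C. Viability read by CellTiter-Glo luminescence; IC50 derived from GI50 curves of concentration versus inhibition.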

[2] = test system: SDMA in HCT116^MTAP Deletion; test: In-Cell Western Assay of cellular SDMA; assay type: cell-based; conditions: HCT116^MTAP Deletion cells, 96 hours; read-out: SDMA inhibition IC50 (µM) in HCT116^MTAP Deletion
Procedure: (§1) Compound dissolution: All the compounds were dissolved in dimethyl sulfoxide (DMSO) and then stored. The compounds were stored at -20°C for long term storage.
(§2) 2.3 Cell culture and passaging
The cells were cultured strictly in accordance with ATCC requirements. […] The supernatant was removed. The cells were resuspended with complete culture medium, inoculated into a culture dish at the required density, and cultured in an incubator at 37 °C, 95% humid air, and 5% carbon dioxide. The culture medium was replenished or the cells were passaged every 2-3 days depending on the cell growth condition.
2.4 In-Cell Western Assay of SDMA
When the confluency of cells in the culture dish reached about 90%, the cells were washed twice with PBS, and then digested with trypsin. 100 µl of the cells was inoculated into each well of a 96-well plate (800 cells/well). The plate was incubated overnight in a 37 °C and 5% CO2 incubator. 50 µL of 3x final concentration of a compound was added to the cell culture plate. Each compound was subjected to a 3-fold dilution, resulting in 10 concentration gradients, in duplicate, and the final concentration of DMSO was 0.5%. The plate was incubated in a 37 °C and 5% CO2 incubator for 96 hours.
150µL of 8% paraformaldehyde was added to each well, and the plate was incubated at room temperature for 15 minutes. The supernatant was discarded. The plate was washed with PBS, and 200µL of freshly prepared 1x Permeabilization buffer was added to each well. The plate was incubated at room temperature for 30 minutes. The supernatant was discarded. 200µL of 1x Blocking buffer was added to each well, and the plate was incubated at room temperature for 2 hours. The supernatant was discarded. 50µL of primary antibody (CST, 1x Incubation buffer 1:500 dilution) was added to each well, and the plate was incubated at 4°C overnight. The supernatant was discarded. 250µL of 1x Washing buffer was added to each well, and the plate was washed three times. 50µL of secondary antibody (IRDye 800CW Goat anti-Rabbit IgG and CellTag 700 dye, 1:800 and 1:500 diluted in Incubation buffer) was added to each well, and the plate was incubated at room temperature for 1 hour. The supernatant was discarded. The plate was washed with 1x Washing buffer. Signals were detected using Licor Odyssey CLX. […] According to the different drug concentrations and their corresponding inhibition rates, the IC50 curve was drawn using GraphPad 8.0 software. The data were analyzed, and the final IC50 value was obtained. […] Table 3 Inhibitory activity on cellular SDMA

[3] = test system: HCT116 cells; test: Anti-proliferation assay on cells (Cell-Titer Glo, 10 days); assay type: cell-based; conditions: ratio of GI50 values
Procedure: Assay example 1: Method of anti-proliferation assay on cells
HCT116^MTAP Deletion cells were from Pharmaron (China); HCT116 cells were from ATCC; McCoy's 5A medium was purchased from Invitrogen (USA); penicillin-streptomycin and fetal bovine serum were purchased from Gibco (USA); a 384-well plate was purchased from PerkinElmer (USA); and Cell-Titer Glo reagent was purchased from Promega (USA).
Compound dissolution: All the compounds were dissolved in dimethyl sulfoxide (DMSO) and then stored. The compounds were stored at room temperature in a dry condition for 3 months for short term storage or at -20 °C for long term storage.
Cell culture and passaging
The cells were cultured strictly in accordance with ATCC requirements. The cell culture medium (McCoy's 5A medium + 10% fetal bovine serum + 1% penicillin + streptomycin) was transferred to a 15 mL centrifuge tube and centrifuged at 1000 rpm for 5 min. The supernatant was removed. The cells were resuspended with complete culture medium, inoculated into a culture dish at the required density, and cultured in an incubator at 37 °C, 95% humid air, and 5% carbon dioxide. The culture medium was replenished or the cells were passaged every 2-3 days depending on the cell growth condition.
Cell proliferation activity assay
When the confluency of cells in the culture dish reached about 90%, the cells were washed twice with PBS, and then treated with trypsin to become single cells. The cells were counted, and 40µl of the cells was inoculated into each well of a 384-well plate (50 cells/well). The plate was equilibrated at 37 °C and 5% carbon dioxide for 10 to 15 minutes. The compounds were injected into the 384-well plate using Echo550, and positive control and negative control (0.1% DMSO) were set up. Each compound was subjected to a 3-fold dilution, resulting in 10 concentration gradients, in duplicate, and the content of DMSO was 0.1%. The 384-well plate was incubated in a cell culture incubator for 10 days.
Then, 40 µl of cell proliferation assay reagent (CTG) was added to the 384-well plate, and the plate was shaken to mix well. Then, the 384-well plate was incubated at 37 °C and 5% carbon dioxide in the dark for 30 minutes. The data were read using the Envision multifunctional microplate reader. […] According to the different drug concentrations and their corresponding inhibition rates, the GI50 curve was drawn using GraphPad 8.0 software. The data were analyzed, and the final IC50 value was obtained.
In addition, the compounds of the present disclosure also have selectivity for mutant HCT116 cells. […] The selectivity data of representative compounds are shown in Table 2: Table 2 Selectivity data of representative compounds

[4] = test system: SDMA in HCT116; test: In-Cell Western Assay of cellular SDMA; assay type: cell-based; conditions: HCT116 cells, 96 hours; read-out: SDMA inhibition IC50 (µM) in HCT116
From the text: Assay example 2: Method of In-Cell Western Assay of cellular SDMA
HCT116^MTAP Deletion cells were from Horizon; HCT116 cells were from ATCC; RPMI-1640 medium was purchased from ATCC (USA); penicillin-streptomycin was purchased from Gibco (USA); fetal bovine serum was purchased from ExCell; 96-well plate was purchased from Corning (USA); Symmetric Di-Methyl Arginine Motif [sdme-RG] antibody was purchased from CST (USA); IRDye 800CW Goat anti-Rabbit IgG secondary antibody was purchased from LI-COR (USA), and CellTag 700 stain was purchased from LI-COR (USA).
as §1, §2
The cells were cultured strictly in accordance with ATCC requirements. The cell culture medium (RPMI-1640 medium + 10% serum + 1% penicillin + streptomycin) was transferred to a 15 mL centrifuge tube and centrifuged at 1000 rpm for 5 min. The supernatant was removed. […]
150µL of 8% paraformaldehyde was added to each well, and the plate was incubated at room temperature for 15 minutes. […] Signals were detected using Licor Odyssey CLX. […] The data were analyzed, and the final IC50 value was obtained. […]

[5] = Brain permeability in CD1 mice after oral gavage administration; assay type: in vivo, Mouse/CD1/Male; set-up: unit not given here; conditions: 30 mg/kg PO, 0.25-8 hours
Procedure: Assay example 4 Investigation of brain permeability in CD1 mice after oral gavage administration
4.1.1 Information of administration
4.1.3 Collection and processing of blood sample
4.1.4 Evaluation during the in vivo experiment
4.2 Test sample and preparation
4.2.1 Information of test sample
All the samples were analyzed by LC-MS/MS, and the concentration of the drug to be tested in the samples was determined by the standard curve method.
For the plasma assay results, the pharmacokinetic parameters were calculated using WinNonlin (Phoenix™) or other similar software.

Compound | GI50 [1] [µM] | IC50 [2] [µM] | Selectivity multiple of HCT116^MTAP WT GI50/ HCT116^MTAP Deletion GI50 [3] | other results
CN(C(=O)C(=O)Nc1cnc(N)c2c1cnn2C)C1COCc2nc(C(F)(F)F)ccc21 (single isomer, unassigned) [Example 152-P2] | < 0.01 | 0.01 to 0.1 | – | –
CN(C(=O)C(=O)Nc1cnc(N)c2c1cnn2C)C1COCc2cc(-c3ccnn3C)ccc21 (stereo not shown) [Example 156-P1] | – | < 0.01 | – | –
CN(C(=O)C(=O)Nc1cnc(N)c2c1cnn2C)C1COc2cc(C(F)(F)F)ccc21 (single isomer, unassigned) [Example 112-P1] | < 0.01 | < 0.01 | 385 | IC50 [4]: 0.1 to 1 µM; Brain AUClast/D ([5]; brain): 428; CSF AUClast/D ([5]; cerebrospinal fluid): 6.15; Plasma AUClast/D ([5]; plasma): 464
C[C@H](c1ncccn1)N(Cc1ccc(C(F)(F)F)cn1)C(=O)C(=O)Nc1cnc(N)c2c1COC2 [Example 2] | 0.01 to 0.1 | < 0.01 | – | –
CN(C(=O)C(=O)Nc1cnc(N)c2c1cnn2C)C1COCc2cc(C3=CCOCC3)ccc21 (stereo not shown) [Example 132-P1] | < 0.01 | < 0.01 | 266 | –
CN(C(=O)C(=O)Nc1cnc(N)c2c1cnn2C)C1COc2cc(-c3ccnn3C)ccc21 (stereo not shown) [Example 192-P1] | – | < 0.01 | 252 | –
Cc1ncc(-c2ccc3c(c2)COCC3N(C)C(=O)C(=O)Nc2cnc(N)c3c2cnn3C)s1 (stereo not shown) [Example 135] | < 0.01 | < 0.01 | 285 | –
CN(C(=O)C(=O)Nc1cnc(N)c2c1cnn2C)C1COCc2cc(-c3ccc(C(F)(F)F)nc3)ccc21 (stereo not shown) [Example 185] | – | – | 240 | GI50 ([1]; 240 h): < 0.01 µM
CN(C(=O)C(=O)Nc1cnc(N)c2c1cnn2C)C1COCc2cc(C(F)(F)F)c(F)cc21 (stereo not shown) [Example 167] | – | – | 61 | GI50 ([1]; 240 h): < 0.01 µM
CN(C(=O)C(=O)Nc1cnc(N)c2c1cnn2C)C1COCc2cc(-c3cnn(C)c3)ccc21 (stereo not shown) [Example 99] | < 0.01 | – | 285 | –
CCC(C)N(Cc1ccc(-c2ccn(C)n2)cn1)C(=O)C(=O)Nc1cnc(N)c2c1cnn2C (stereo not shown) [Example 88] | – | – | 161 | GI50 ([1]; 240 h): < 0.01 µM
CN(C(=O)C(=O)Nc1cnc(N)c2c1cnn2C)C1COCc2cc(-c3cnn(C)c3)ccc21 (stereo not shown) [Example 124-P1] | < 0.01 | – | 215 | –
CN(C(=O)C(=O)Nc1cnc(N)c2c1cnn2C)C1COc2cc(-c3ccnn3C)ccc21 (stereo not shown) [Example 161] | < 0.01 | – | 169 | –
CN(C(=O)C(=O)Nc1cnc(N)c2c1cnn2C)C1COCc2cc(-c3cnc(C4CC4)s3)ccc21 (stereo not shown) [Example 194] | – | – | 429 | GI50 ([1]; 240 h): < 0.01 µM
